Assay results reported in patent publication US7803559B1, “Protein aggregation regulators” (The Regents of the University of CA, priority 2003, dated 2010).
Read-outs that look alike come from different tables or passages of the source.

Assays:
ARN127(65)CFP/YFP [1] = assay: FRET-based assay of polyglutamine (AR) aggregation, limited chemical screen and dose-response; assay type: cell-based, human
Description: For experiments in the fluorescence plate reader, high-throughput screening, and detergent fractionation, HEK293 cells in 6-well plates were transfected with a total of 2 μg of DNA using 10 μL Plus™ and 12 μL Lipofectamine™ according to manufacturer's protocol. To control for autofluorescence and light scattering by mammalian cells, a control group was transfected with 2 μg pcDNA3. To control for bleedthrough and crossover excitation, CFP and YFP controls were transfected with 1 μg pECFP-C1 (Clontech) and 1 μg pcDNA3 (Invitrogen) or 1 μg pEYFP-C1 (Clontech) and 1 μg pcDNA3 respectively. After 5 hours, cells were counted and plated into optically clear 96-well plates (Costar™ 3603) at a density of 60,000 cells/well. […] For assays of rho-GTPase mutants, 1 μg of each was used in conjunction with 1 μg of the polyglutamine expression plasmids. Transfections were performed in triplicate, and each experiment was repeated 6 times. C17-2 neural precursor cells were plated in 12-well plates and transfected using 4 μg of DNA and 4 μl of Lipofectamine 2000™. […] In C17-2 cells polyglutamine protein was visualized by direct fluorescence; neuron-specific tubulin was visualized by immunostaining with mouse monoclonal antibody Neuro TUJ1 (Covance) at 1:1000. […]

htt(72)CFP/YFP = biological target: T1, htt(72)CFP/YFP (Homo sapiens, UniProt P42858, INS38QQQQQQQQQQQQQQQQQQQQQQQQQQQQQQQQQQQQQQQQQQQQQQQQQQQ); assay: FRET based assay of htt aggregation; assay type: cell-based
T1 construct: htt exon 1 fragment derived from plasmid qp72; expressed in transfected cells; host or cells: HEK293
T1 sequence (P42858 with tags, fused parts or gaps, stated change not applied): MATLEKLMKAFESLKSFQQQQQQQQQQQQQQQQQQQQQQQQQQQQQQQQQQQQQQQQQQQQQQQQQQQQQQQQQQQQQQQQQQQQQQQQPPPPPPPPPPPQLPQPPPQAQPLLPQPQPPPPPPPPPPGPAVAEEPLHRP
Description: Aggregation of htt was monitored using the FPR FRET based HTS described herein for assaying aggregation of AR, using plasmids with htt exon 1-CFP and -YFP fusions containing 72 repeats (htt(72)CFP/YFP). HEK293 cells were transfected with htt(72)CFP/YFP as above, and cells were plated into a 96-well dish in the presence or absence of various concentrations of test compounds. After 24 hours, cells were fixed in 4% paraformaldehyde, and FRET signal was determined from the cell monolayers by reading on the FPR.

[2] = tested on: Transgenic flies harboring htt exon 1 (Q93); assay: Drosophila model of htt exon 1 neurodegeneration (rhabdomeres per ommatidium); assay type: in vivo; details: 25 μM in food, seven days post-eclosion, p<0.0003 by ANOVA
Description: Transgenic flies were used, harboring a human huntingtin exon 1 fragment with 93 glutamines (htt exon 1 (Q93)) that is expressed in all fly neurons under the control of the elav:Gal4 driver.
Flies were treated by maintaining adults on food containing candidate compound (e.g., 25 μM Y-27632) or no drug supplement. The number of rhabdomeres in treated vs. untreated flies were analyzed seven days post-eclosion by the pseudopupil technique as described (Steffan et al., (2001). Nature 413, 739-743). Approximately 50-60 ommatidia were analyzed for rhabdomere content on each of 10-12 flies from each treatment group, and the average number of rhabdomeres per ommatidium in each individual was determined. Percent rhabdomere loss was calculated as 100×((7−average number remaining)/7) before and after treatment.
The therapeutic effect of Y-27632 in a Drosophila model of polyglutamine neurodegenerative disease was tested. Following eclosion, adult flies expressing the transgene were grown for seven days in the presence or absence of 25 μM Y-27632 in their food and rhabdomeres were counted at seven days. […] Thus, in addition to reducing polyglutamine aggregation in mammalian cells, Y-27632 is neuroprotective in this Drosophila model of polyglutamine protein toxicity.

full-length AR = assay: Western blot of full-length AR levels in stable C17.2 neural cell lines; assay type: cell-based; details: 50 μM, with or without 100 nM DHT, FIG. 6A
Description: (§1) Immortalized cell lines were created expressing full-length AR that differentiated in vitro into cells that resemble CNS neurons. C17.2 cells were used, developed by Evan Snyder, M. D., Ph.D. which are a transformed mouse neural precursor cell line that retain the ability to engraft and differentiate into CNS neurons and glia when implanted into fetal mouse brain (Snyder et al. 1192 Cell 68:33-51). In their undifferentiated form these cells may be propagated and easily transfected in vitro. However, upon serum starvation, addition of growth factor (NGF 100 ng/ml), and mitomycin (100 ng/ml) they differentiate into cells that have many features of CNS neurons, including axons, dendrites, and expression of neuron-specific markers.
(§2) C17.2 cell lines were created that stably expressed full-length HA-tagged forms of AR (25, 66, 103, or 122 glutamines). These AR(n)-C17.2 cell lines recapitulate several important aspects of SBMA, including proteolytic cleavage, and nuclear inclusion formation (data not shown). […] After six days of differentiation, AR(25)-C17.2 cells cultured with or without DHT readily formed neuron-like cells, expressing neural markers and extending long axonal processes. […]

AR(122)-C17.2 cells = assay: Cell model of full length AR cytopathology (surviving neurons after 6 days of differentiation); assay type: cell-based, mouse; details: 50 μM
Description: as §1, §2

[3] = Pharmacokinetics in serum and brain of mice (LC-MS); assay type: in vivo, mouse; details: for half-life: mouse
Description: The pharmacokinetics of candidate compounds were assayed in serum and brain of mice. Wild-type C57B6 mice are injected with a single IP dose of a candidate compound, e.g., Y-27632 at 10 mg/kg. Pairs of animals are sacrificed at various time points and serum and brain samples were obtained for LC-MS analysis of drug levels. Plots of serum concentration vs. time and brain concentration vs. time are used to analyze, e.g., penetration of the blood/brain barrier, drug kinetics, and t1/2.
Wild-type C57B6 mice were treated with a single 10 mg/kg dose of Y-27632 by IP injection. Pairs of animals were sacrificed at various time points and serum and brain samples were obtained for LC-MS analysis of Y-27632 levels. […] The initial rapid fall in serum concentration is likely due to tissue re-distribution. […] Values represent the average from two mice; error bars represent the range.

ARN127(65)CFP/YFP [4] = assay: Secondary screen using the AR FRET assay; assay type: cell-based, human; details: secondary screen, AR FRET assay, Table 3
Description: Selected candidate compounds and/or libraries of compounds were screened as follows. Daughter plates were created in duplicate from the 384-well microtiter plates that contained the compounds at a concentration of 80 μg/ml. […] To screen a library, HEK293 cells stably expressing RFP were plated in 10 cm plates to obtain ˜80% confluency on the day of transfection. Each plate was transfected with 2 μg of ARN127(65)CFP/YFP each, and 0.7 μg p6RGRΔ using 50 μL Plus Reagent™ and 76 μL Lipofectamine™ according to manufacturer's protocol (Invitrogen). After 3 hours, complete medium was added and the plates were incubated further for 3 hours. […] The cells were then cultured for ˜48 hours to allow aggregate formation. After fixing the cells FRET signal was measured using a SAFIRE Fluorescence Plate Reader (Tecan, Inc.) according to methods described above. Several internal controls were used to standardize each experiment. Mock transfected cells were used to control for background autofluorescence and light scattering by mammalian cells. To control for CFP bleedthrough and crossover excitation of YFP, additional wells contained cells expressing ARN127(25)CFP or ARN127(25)YFP alone. RFP was measured to control for non-specific effects on steady-state protein levels. ARN127(25)CFP/YFP expression served as a reference point for background FRET levels without aggregation (a theoretical maximum effect on aggregation inhibition). FRET measurements for each experiment were thus scaled between 100% (cells with no drug treatment) and 0% (FRET levels from unexpanded protein).
Selected candidate compounds from the primary screen of all three libraries were assayed again in a secondary screen using the AR FRET assay.
Finally, the role of F-actin in preventing polyglutamine aggregation was investigated by treating cells with two agents that prevent actin depolymerization: phalloidin and jasplakinolide.

[5] = C57B6 mice, single 10 mg/kg dose IP

Row | Compound | decrease of FRET (polyglutamine protein aggregation) (ARN127(65)CFP/YFP [1]; HEK293, ARN127(65)CFP/YFP and GRΔ, 100 nM dex, 48 hours) | EC50 (ARN127(65)CFP/YFP [1]; dose-response analysis, FRET, FIG. 3B, read-out: EC50 for the effect on polyglutamine aggregation) | aggregation of htt exon 1-CFP and -YFP fusions containing 72 repeats (htt(72)CFP/YFP; FIG. 3A) | rhabdomere loss prevented [2] | AR steady-state levels (full-length AR) | increase in number of surviving AR(122)-C17.2 neurons (AR(122)-C17.2 cells) | effect on AR(25)-C17.2 cells (AR(122)-C17.2 cells; data not shown) | serum:brain ratio ([3]; C57B6, mouse, in vivo, ip, 10 mg/kg) | bioavailability [3, 5] | brain concentration, peak [3, 5] | serum concentration, spike [3, 5] | half-life ([3]; serum and brain, C57B6 mice, single 10 mg/kg dose IP, read-out: t1/2 of clearance from serum and brain (first-order kinetics)) | half-life ([3]; serum, C57B6 mice, single 10 mg/kg dose IP, read-out: t1/2 of clearance from serum) | Max % Inhibition (ARN127(65)CFP/YFP [4]) | Max % Inh. in Htt (htt(72)CFP/YFP; HEK293, htt(72)CFP/YFP, 24 hours)
1 | C[C@@H](N)C1CCC(C(=O)Nc2ccncc2)CC1 (stereo partly drawn) [Compound Y-27632] | 40% | ~5 µM | inhibited aggregation | 29% | reduced the AR steady-state levels | 100% | without affecting AR(25)-C17.2 cells | approximately 6:1 | excellent bioavailability | ≈ 500 nM | approximately 3.5 μM | ~60 min | ~60 min | – | –
2 | COc1cc2ncnc(Nc3ccc(F)c(Cl)c3)c2cc1OC(C)=O [Compound 3, Acetic acid 4-(3-chloro-4-fluoro-phenylamino)-7-methoxy-quinazolin-6-yl ester] | – | – | – | – | – | – | – | – | – | – | – | – | – | 30% | 21%
